Source: US12508233B2, “Graft copolymers, methods of forming graft copolymers, and methods of use thereof” (Vanderbilt University, priority 2018, dated 2025)

Tested on: THP-1 ISG reporter cells
Assay: THP-1 ISG reporter cell assay in the context of cGAMP delivery
Type: cell-based
Conditions: free cGAMP, dashed line in FIG. 10C; read-out: Half-maximal response of cGAMP
Excerpt: The graft copolymers disclosed herein were next tested for bioactivity and drug delivery properties. As illustrated in FIGS. 9A-B, hemolysis, a measure of endosomolytic activity, increases with increasing MW and decreases with increasing hydrophilic weight fraction. Turning to FIGS. 10A-D, THP-1 ISG reporter cells were used to determine cellular uptake and cGAMP delivery.

## Nc1nc2c(ncn2[C@@H]2O[C@@H]3COP(=O)(O)O[C@H]4[C@@H](O)[C@H](n5cnc6c(N)ncnc65)O[C@@H]4COP(=O)(O)O[C@@H]2[C@@H]3O)c(=O)[nH]1 [cGAMP]
  EC50: 40 µM
